In patent US11787802B2, “Dihydrobenzimidazolones for medical treatment” (C4 Therapeutics, Inc., priority 2017, dated 2023):

What follows are compounds tested against hCereblon(M1-L442)_hDDB1(M1-H1140) (Homo sapiens (Human), UniProt Q96SW2) (assay: Fluorescence direct binding protocol (tryptophan fluorescence titration)). Conditions: fluorescence titration at 20° C., excited at 280 nm, recorded at 340 nm; protein 5.0 E−8 M; assay buffer 50 mM Hepes 7.4 200 mM NaCl; read-out: Fluorescence h-Cereblon_DDB1 Mean Kd_EQ.
Chain of hCereblon(M1-L442)_hDDB1(M1-H1140) (Q96SW2 whole entry): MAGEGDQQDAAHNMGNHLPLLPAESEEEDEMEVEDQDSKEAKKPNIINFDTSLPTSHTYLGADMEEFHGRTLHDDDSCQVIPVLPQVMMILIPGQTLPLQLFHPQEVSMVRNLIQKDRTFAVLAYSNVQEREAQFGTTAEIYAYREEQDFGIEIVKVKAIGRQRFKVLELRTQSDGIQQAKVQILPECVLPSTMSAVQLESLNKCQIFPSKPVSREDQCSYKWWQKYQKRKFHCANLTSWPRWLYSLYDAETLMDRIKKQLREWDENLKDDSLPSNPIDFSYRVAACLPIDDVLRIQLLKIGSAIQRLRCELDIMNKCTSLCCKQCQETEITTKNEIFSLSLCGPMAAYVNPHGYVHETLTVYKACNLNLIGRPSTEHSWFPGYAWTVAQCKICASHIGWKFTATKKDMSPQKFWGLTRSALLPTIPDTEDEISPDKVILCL
Chain of hCereblon(M1-L442)_hDDB1(M1-H1140) (Q16531 whole entry partner): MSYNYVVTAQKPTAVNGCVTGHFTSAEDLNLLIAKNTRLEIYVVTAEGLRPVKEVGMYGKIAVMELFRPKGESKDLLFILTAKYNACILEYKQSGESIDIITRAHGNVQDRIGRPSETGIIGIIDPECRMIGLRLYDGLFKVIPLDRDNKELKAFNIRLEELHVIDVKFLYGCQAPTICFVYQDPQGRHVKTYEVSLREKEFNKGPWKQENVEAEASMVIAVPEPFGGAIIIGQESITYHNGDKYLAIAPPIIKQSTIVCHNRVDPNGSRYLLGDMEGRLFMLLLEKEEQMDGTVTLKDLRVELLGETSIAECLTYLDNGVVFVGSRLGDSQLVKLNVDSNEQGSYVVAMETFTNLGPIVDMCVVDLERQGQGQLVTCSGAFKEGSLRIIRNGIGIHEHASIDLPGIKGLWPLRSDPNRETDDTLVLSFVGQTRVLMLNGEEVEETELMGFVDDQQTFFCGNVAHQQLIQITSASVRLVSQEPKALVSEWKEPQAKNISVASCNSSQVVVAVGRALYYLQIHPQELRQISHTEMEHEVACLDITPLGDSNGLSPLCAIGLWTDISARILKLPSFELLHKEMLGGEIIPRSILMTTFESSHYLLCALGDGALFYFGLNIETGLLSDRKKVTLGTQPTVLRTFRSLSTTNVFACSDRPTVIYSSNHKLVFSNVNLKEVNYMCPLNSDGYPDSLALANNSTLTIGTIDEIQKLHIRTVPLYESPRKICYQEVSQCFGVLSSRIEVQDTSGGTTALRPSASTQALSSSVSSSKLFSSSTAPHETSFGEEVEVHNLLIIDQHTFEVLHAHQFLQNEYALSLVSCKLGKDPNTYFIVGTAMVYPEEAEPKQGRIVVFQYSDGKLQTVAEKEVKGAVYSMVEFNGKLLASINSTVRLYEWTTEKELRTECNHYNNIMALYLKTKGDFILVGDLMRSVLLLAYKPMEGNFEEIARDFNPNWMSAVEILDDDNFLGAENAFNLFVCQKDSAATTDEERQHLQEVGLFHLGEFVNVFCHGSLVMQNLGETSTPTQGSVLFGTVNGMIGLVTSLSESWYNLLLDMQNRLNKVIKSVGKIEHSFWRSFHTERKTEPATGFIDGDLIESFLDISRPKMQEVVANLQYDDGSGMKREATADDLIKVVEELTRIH
Protocol: Fluorescence Direct Binding Protocol
Determination of the affinities of compounds to protein containing one or more tryptophan is measurable by monitoring the fluorescence emission in direct mode. The measurements depending on the protein available amounts are performed either manually in a cuvette on ISS-PC1 photon counting spectrofluorometer or automatically in well plates on a fluorescence plate reader device. Fluorescence titrations are performed at 20° C. in the chosen binding assay buffer by using a defined constant protein concentration against ligand concentration variations. Small aliquots of known ligand concentration solubilized in DMSO were added and the fluorescence, excited at 280 nm, was recorded at 340 nm. The fluorescence intensity was corrected for protein dilution and for the filter effect (Birdsall et al.^69). The corrected fluorescence intensity was plotted against the ligand concentration and fitted using a four-parameter sigmoidal function, from which the equilibrium dissociation constant Kd was computed using the law of mass action assuming a 1:1 protein-ligand complex (Eftink, 1997^70).
Process • 1) Optimization of measurement parameters to minimize protein consumption and to minimize the dilution effect and the DMSO content • 2) Titration measurements of the protein against ligand by at least 12 titration steps to obtain a good s-curve fit • 3) Repeat the same titration measurements with the ligand alone to enable correction • 4) Check the stability of the protein once by titration against DMSO alone • 5) Determination of the molar extinction coefficients of the ligand at 280 and 340 nm with help of an UV-spectrophotometer • 6) Use Excel template for the correction of the measured raw data • 7) Use GraphPad Prism software for the quadratic binding fit and the KD evaluation.

Row | Kd | Compound
1 | 23 nM | CC(=O)Nc1ccc(CC(=O)Nc2ccc3[nH]c(=O)[nH]c3c2)cc1 [Example 78, 2-(4-Acetamidophenyl)-N-(2-oxo-2,3-dihydro-1H-benzo[d]imidazol-5-yl)acetamide]
2 | 82 nM | COC(=O)c1ccc(S(=O)(=O)Nc2ccc3[nH]c(=O)[nH]c3c2)cc1 [Example 118, Methyl 4-(N-(2-oxo-2,3-dihydro-1H-benzo[d]imidazol-5-yl)sulfamoyl)benzoate]
3 | 28 nM | CNC(=O)c1ccc2c(c1)nc(-c1cc(-c3cncn3C)nc3ccccc13)n2-c1ccc2[nH]c(=O)[nH]c2c1 [Example 2, N-Methyl-2-(2-(1-methyl-1H-imidazol-5-yl)quinolin-4-yl)-2′-oxo-2′,3′-dihydro-1′H-[1,5′-bibenzo[d]imidazole]-5-carboxamide]
4 | 5 nM | O=C(Nc1ccccc1)c1cnc2[nH]c(=O)[nH]c2c1 [Example 67, 2-Oxo-N-phenyl-2,3-dihydro-1H-imidazo[4,5-b]pyridine-6-carboxamide]
5 | 22 nM | O=c1[nH]c2ccc(NS(=O)(=O)c3coc4ccccc34)cc2[nH]1 [Example 137, N-(2-Oxo-2,3-dihydro-1H-benzo[d]imidazol-5-yl)benzofuran-3-sulfonamide]
6 | 17 nM | Nc1ccc2c(c1)CCN2Cc1ccc2[nH]c(=O)[nH]c2c1 [Example 149, 5-((5-Aminoindolin-1-yl)methyl)-1,3-dihydro-2H-benzo[d]imidazol-2-one]
7 | 5 nM | CC(=O)N1CCC(C(=O)Nc2ccc3[nH]c(=O)[nH]c3c2)CC1 [Example 91, 1-Acetyl-N-(2-oxo-2,3-dihydro-1H-benzo[d]imidazol-5-yl)piperidine-4-carboxamide]
8 | 13 nM | COc1ccc2c(c1)nc(C(C)C)n2-c1ccc2[nH]c(=O)[nH]c2c1 [Example 124, 2-Isopropyl-5-methoxy-1′,3′-dihydro-2′H-[1,5′-bibenzo[d]imidazol]-2′-one]
9 | 22 nM | O=C(Nc1ccc2[nH]c(=O)[nH]c2c1)c1ccccc1Cc1ccccc1 [Example 123, 2-Benzyl-N-(2-oxo-2,3-dihydro-1H-benzo[d]imidazol-5-yl)benzamide]
10 | 49 nM | Cn1c(=O)[nH]c2cc(Nc3ccccc3N)ccc21 [Example 53, 5-((2-Aminophenyl)amino)-1-methyl-1,3-dihydro-2H-benzo[d]imidazol-2-one]
11 | 88 nM | CNC(=O)c1ccc2c(c1)nc(-c1ccccc1)n2-c1ccc2[nH]c(=O)[nH]c2c1 [Example 10, N-Methyl-2′-oxo-2-phenyl-2′,3′-dihydro-1′H-[1,5′-bibenzo[d]imidazole]-5-carboxamide]
12 | 24 nM | CC(C)c1nc2ccccc2n1-c1ccc2[nH]c(=O)n(C)c2c1 [Example 35, 2-Isopropyl-3′-methyl-1′,3′-dihydro-2′H-[1,5′-bibenzo[d]imidazol]-2′-one]
13 | 29 nM | O=C1c2ccc(Br)cc2CN1c1ccc2[nH]c(=O)[nH]c2c1 [Example 110, 5-(5-Bromo-1-oxo-isoindolin-2-yl)-1,3-dihydrobenzimidazol-2-one]
14 | 29 nM | O=C(Nc1ccc2[nH]c(=O)[nH]c2c1)c1cccc2c1CCN2 [Example 144, N-(2-Oxo-2,3-dihydro-1H-benzo[d]imidazol-5-yl)indoline-4-carboxamide]
15 | 2 nM | CC(=O)N1CCC(NC(=O)c2cnc3[nH]c(=O)[nH]c3c2)CC1 [Example 56, N-(1-Acetylpiperidin-4-yl)-2-oxo-2,3-dihydro-1H-imidazo[4,5-b]pyridine-6-carboxamide]
16 | 52 nM | COC(=O)c1ccccc1C(=O)Nc1ccc2[nH]c(=O)[nH]c2c1 [Example 151, Methyl 2-((2-oxo-2,3-dihydro-1H-benzo[d]imidazol-5-yl)carbamoyl)benzoate]

Row | Kd | Compound
17 | 25 nM | COC(=O)c1cccc2c1CCN2C(=O)Nc1ccc2[nH]c(=O)[nH]c2c1 [Example 89, Methyl 1-((2-oxo-2,3-dihydro-1H-benzo[d]imidazol-5-yl)carbamoyl)indoline-4-carboxylate]
18 | 9 nM | CCOC(=O)c1ccc(NC(=O)Nc2ccc3[nH]c(=O)[nH]c3c2)cc1 [Example 126, Ethyl 4-(3-(2-oxo-2,3-dihydro-1H-benzo[d]imidazol-5-yl)ureido)benzoate]
19 | 39 nM | CNC(=O)c1ccc2c(c1)nc(-c1ccnc3ccccc13)n2-c1ccc2[nH]c(=O)[nH]c2c1 [Example 3, N-Methyl-2′-oxo-2-(quinolin-4-yl)-2′,3′-dihydro-1′H-[1,5′-bibenzo[d]imidazole]-5-carboxamide]
20 | 194 nM | CC(C)c1nc2cc(OCc3ccccc3)ccc2n1-c1ccc2[nH]c(=O)[nH]c2c1 [Example 120, 5-(Benzyloxy)-2-isopropyl-1′,3′-dihydro-2′H-[1,5′-bibenzo[d]imidazol]-2′-one]
21 | < 1 nM | COc1cnccc1C(=O)Nc1ccc2[nH]c(=O)[nH]c2c1 [Example 132, 3-Methoxy-N-(2-oxo-2,3-dihydro-1H-benzo[d]imidazol-5-yl)isonicotinamide]
22 | 96 nM | CNC(=O)c1ccc2c(c1)nc(C1(c3ccc(OC)cc3)CC1)n2-c1ccc2[nH]c(=O)[nH]c2c1 [Example 115, 2-(1-(4-Methoxyphenyl)cyclopropyl)-N-methyl-2′-oxo-2′,3′-dihydro-1′H-[1,5′-bibenzo[d]imidazole]-5-carboxamide]
23 | 41 nM | O=c1[nH]c2ccc(CCCc3ccccc3)nc2[nH]1 [Example 26, 5-(3-Phenyl-propyl)-1,3-dihydro-imidazo[4,5-b]pyridin-2-one]
24 | 48 nM | O=c1[nH]c2ccc(S(=O)(=O)N3CCc4ccccc43)cc2[nH]1 [Example 116, 5-(Indolin-1-ylsulfonyl)-1,3-dihydro-2H-benzo[d]imidazol-2-one]
25 | 4 nM | O=C(Nc1ccc2[nH]c(=O)[nH]c2c1)N1CCc2ccccc21 [Example 105, N-(2-Oxo-2,3-dihydro-1H-benzo[d]imidazol-5-yl)indoline-1-carboxamide]
26 | 51 nM | CNC(=O)c1ccc2c(c1)nc(-c1cc[nH]c1)n2-c1ccc2[nH]c(=O)[nH]c2c1 [Example 66, N-Methyl-2′-oxo-2-(1H-pyrrol-3-yl)-2′,3′-dihydro-1′H-[1,5′-bibenzo[d]imidazole]-5-carboxamide]
27 | 18 nM | O=c1[nH]c2ccc(-c3ccc(-n4cccc4)cc3)cc2[nH]1 [Example 41, 5-(4-Pyrrol-1-yl-phenyl)-1,3-dihydro-benzoimidazol-2-one]
28 | 54 nM | Nc1ccccc1Nc1ccc2[nH]c(=O)[nH]c2c1 [Example 6, 5-((2-Aminophenyl)amino)-1H-benzo[d]imidazol-2(3H)-one]
29 | 84 nM | CC(=O)N1CCc2c(C(=O)Nc3ccc4[nH]c(=O)[nH]c4c3)cccc21 [Example 145, 1-Acetyl-N-(2-oxo-2,3-dihydro-1H-benzo[d]imidazol-5-yl)indoline-4-carboxamide]
30 | 831 nM | COC(=O)c1ccc2c(c1)nc(-c1cc(-c3cncn3C)nc3ccccc13)n2-c1ccc2[nH]c(=O)[nH]c2c1 [Example 107, Methyl 2-(2-(1-methyl-1H-imidazol-5-yl)quinolin-4-yl)-2′-oxo-2′,3′-dihydro-1′H-[1,5′-bibenzo[d]imidazole]-5-carboxylate]
31 | 47 nM | CNC(=O)c1cccc2c1nc(C(C)C)n2-c1ccc2[nH]c(=O)[nH]c2c1 [Example 60, 2-Isopropyl-N-methyl-2′-oxo-2′,3′-dihydro-1′H-[1,5′-bibenzo[d]imidazole]-4-carboxamide]
